Measured values from patent publication US20150329864A1, “DESIGN OF OLIGONUCLEOTIDE ANALOGS AS THERAPEUTIC AGENTS” (SPRING BANK PHARMACEUTICALS, INC., priority 2010, published 2015).
pEC50: −log10 of the molar value. Read-outs that look alike come from different tables or passages of the source.

Tests used:
[1] = In vitro cytotoxicity, MTT assay; assay type: cell-based; conditions: cattle (MDBK), African green monkey (Vero), human (HFF)
Method: Compounds 5 and 6k have excellent safety profile with CC50>1000 micromolar in a number of cell lines. Standard MTT assays were performed in 96-well plates using the Promega CellTiter96 Non-radioactive Cell Proliferation Assay Kit in conjunction with a 96-well Plate Reader (ThermoMax, Molecular devices), and MDBK, Vero, and HFF cell lines (obtained from ATCC). Several controls were employed including the nucleoside analogs 3TC, AZT, and ddC, as well as, media without drugs. SDS was used as a positive cytotoxic control. The compounds were tested in triplicate at concentrations of 100, 300, and 1000 μM. Following a 24-hour incubation of cells with the test substance, the MTT assay was carried out.

[2] = test system: IRF3-luciferase reporter gene (activation of NOD2); experiment: IRF3-luciferase reporter induction in HLE A549 cells endogenously expressing NOD2; assay type: cell-based, human; conditions: for Fold induction of IRF3 luciferase activity: 1 µM; for fold induction at 1 µM: Homo sapiens, A549, 12 h
Method: In the primary assays, di- and trinucleotide compounds were tested for the induction of IRF3 expression in HLE A549 cells, which are known to express NOD2.
HLE cells normally endogenously express NOD2. To determine if short oligonucleotide compounds activate NOD2, HLE cells transfected with IRF3 plasmid were employed. IRF3-luciferase transfected cells were incubated with either DMSO only (UT) or test compounds (1 μM). Following 12 h incubation, Luciferase activity was measured using Dual-Luciferase Reporter Assay System (Promega) according to the manufacturer's protocol. Transection efficiency was normalized by measuring the expression of renilla Luciferase. Luciferase units (i.e., fold induction) were measured by standard methodology.

[3] = Weight change and apparent toxicity in orally treated HBV transgenic mice; assay type: in vivo
Method: Compound 6k was evaluated for anti-HBV activity in the transgenic mouse model of HBV infection. Male transgenic mouse infected with HBV, with age ranging from 78 to 108 days were used. Compound 6k was initially evaluated at a single dose of 300 mg/kg, administered daily for 14 days by oral gavage. The compounds were administered in citric acid and adefovir dipivoxil was used as a positive control. A control group which received vehicle was used a negative control. Following the treatment, mice were sacrificed and liver tissue analyzed for HBV DNA using Southern blot analysis. The data was statistically evaluated using Kruskall-Wallis non-parametric ANOVA.
(a) Male and female transgenic mice (founder 1.3.32) were infected with human hepatitis B virus. Following infection, animals were orally administered Compound 6k, or a placebo of 0.05 M citric acid, pH 2.0 once daily for 14 days. Dosage was 300 mg/kg/d for Compound 6k. The positive control, ADV, was administered at 10 mg/kg/d.
Statistical significance is indicated as *P≦0.05, **P≦0.01, ***P≦0.001 compared to placebo vehicle.

[4] = test system: HBV wild type and drug resistant strains; experiment: HepG2.2.15 HBV assay; assay type: cell-based; conditions: Hepatitis B virus, HepG2.2.15, read-out: EC50, inhibition of intracellular HBV replication
Method: Selected compounds were evaluated in in vitro cell-based HepG2.2.15 HBV assay.
Antiviral analysis. For the antiviral analyses, confluent cultures of 2.2.1.5 cells were maintained on 96-well flat-bottomed tissue culture plates in RPMI1640 medium with 2% fetal bovine serum. Cultures (6 per each test concentration on two replicate plates) were treated with 9 consecutive daily doses of the test compounds. Medium was changed daily with fresh test compounds. HBV nucleic acid and protein levels were measured 24 hours after the last treatment. Extracellular (virion) HBV DNA levels were assessed by quantitative blot hybridization. Intracellular HBV DNA levels were measured by quantitative Southern blot hybridization.

[5] = test system: HCV replicon AVA5 (sub-genomic (CON1), genotype 1b); experiment: Primary anti-HCV assay, replicon cell line AVA5; assay type: cell-based; conditions: 3-day assay
Method: Antiviral activity against HCV was assessed in a 3-day assay (Okuse, et al., 2005; Antiviral. Res. 65:23; Korba, et al., 2008, Antiviral Res. 77:56) using the stably-expressing HCV replicon cell line, AVA5 (sub-genomic (CON1), genotype 1b) (Blight, et al., 2000; Science 290:1972) maintained as sub-confluent cultures on 96-well plates. Antiviral activity was determined by blot hybridization analysis of intracellular HCV RNA (normalized to the level of cellular B-actin RNA in each culture sample). Cytotoxicity was assessed by neutral red dye uptake in cultures maintained in parallel plates.
EC50, EC90, and CC50 values were calculated by linear regression analysis (MS EXCEL®, QuattroPro®) using data combined from all treated cultures Korba & Gerin, 1992, Antivir. Res. 19:55; Okuse, et al., 2005, Antivir. Res. 65:23). Standard deviations for EC50 and EC90 values are calculated from the standard errors generated by the regression analyses, EC50 and EC90 are drug concentrations at which a 2-fold, or a 10-fold depression of intracellular HCV RNA (relative to the average levels in untreated cultures), respectively was observed. […] Recombinant human interferon 2b (PBL laboratories, Inc.) is used as an assay control.

[6] = test system: Human Respiratory Syncytial Virus (RSV); experiment: RSV infectivity, plaque assay; assay type: cell-based; conditions: human lung epithelial cells, RSV 0.5 MOI, 24 h post-infection
Method: (A) RSV infectivity in untreated (UT) and SMNH-treated cells. Human lung epithelial cells were infected with RSV (0.5 MOI) in the absence (DMSO only) or presence of various SMNH compounds (1 μM). At 24 h post-infection, the medium supernatant was collected and the viral titer in the supernatant was assayed by plaque assay analysis using CV-1 cell monolayer, 100% RSV infection represents viral titer from cells incubated with DMSO only (UT cells). The values represent mean±S.D. for three independent determinations. S.D. is shown as error bars.
(B) A typical plaque assay showing RSV infectivty in UT and SMNH-treated cells. Culture supernatant from RSV infected cells (+/− SMNH) was added to CV-1 cells at a dilution of […]. Plaques were observed and quantitated on methylcellulose after crystal violet staining.

[7] = 1 μM, 12 h, HLE A549 cells, SMNH treated vs. untreated cells

CO[C@H]1C(OP(=O)(OC[C@H]2O[C@@H](n3cnc4c(N)ncnc43)CC2O)SCOC(=O)OC(C)C)[C@@H](CO)O[C@H]1n1ccc(=O)[nH]c1=O (some centres unmarked) [Compound 6k]
CC50 at 24 h ([1]; MTT, 24-hour incubation, tested at 100, 300, and 1000 μM, read-out: CC50): > 1000 µM | Fold induction of IRF3 luciferase activity [2, 7]: 22 fold | fold induction at 1 µM ([2]; read-out: Fold induction of IRF3 luciferase activity, 1 μM, 12 h, HLE A549 cells, SMNH treated vs. untreated cells): 15 to 20 | % weight change ± sd ([3]; 300 mg/kg/d, oral, once daily 14 days): 4.3 ± 1.8% | apparent toxicity ([3]; high doses employed, oral once daily 14 days): no apparent toxicity | pEC50 [4]: 5.70 to 6.52 | EC90, 10-fold depression of intracellular HCV RNA [5]: about 8 micromolar | inhibition at 1 µM ([6]; human respiratory syncytial virus, Epithelial cell, 24 h): 60 to 80%

CO[C@H]1C(OP(=O)(S)OC[C@H]2O[C@@H](n3cnc4c(N)ncnc43)CC2O)[C@@H](CO)O[C@H]1n1ccc(=O)[nH]c1=O (some centres unmarked) [Compound 5, 3-dApsU2′-OMe]
CC50 at 24 h [1]: > 1000 µM | Fold induction of IRF3 luciferase activity [2, 7]: 25 fold | fold induction at 1 µM ([2]; 1 μM, 12 h, HLE A549 cells, SMNH treated vs. untreated cells, read-out: Fold induction of IRF3 luciferase activity): 15 to 20 | pEC50 [4]: 5.70 to 6.52 | pEC50 ([5]; Hepatitis C virus, Ava5, 72 h): ~5.52 | % inhibition of RSV at 1 μM ([6]; 1 µM): 82%
